From ChEMBL document CHEMBL3045906, “LCMS/MS method for simultaneous analysis of cladrin and equol in rat plasma and its application in pharmacokinetics study of cladrin” (Med Chem Res, 2011) come the findings set out here.

Molecules are shown by their SMILES.

For one data set, the system named is Plasma. The data set is described as follows: Drug recovery in Rattus norvegicus (rat) plasma at 50 ng/ml by LLE method. Type of data set: ADME, cell-free.
Data set [1] can be described thus: Stability of the compound in Rattus norvegicus (rat) plasma at 7.8 ng/ml after three 24 hr cycles of freeze-thaw on storing at -80 degC. Type of data set: ADME, cell-free. To be noted: read-out: Stability.
Data set [2] in a line: Stability of the compound in Rattus norvegicus (rat) plasma at 62.5 ng/ml after three 24 hr cycles of freeze-thaw on storing at -80 degC. Type of data set: ADME, cell-free. As to conditions: read-out: Stability.
Data set [3] is described as follows: Stability of the compound in Rattus norvegicus (rat) plasma at 1000 ng/ml after three 24 hr cycles of freeze-thaw on storing at -80 degC. To be noted: read-out: Stability. The data set is classed as ADME, cell-free.
Data set [4] is described as follows: Stability of the compound in Rattus norvegicus (rat) plasma at 7.8 ng/ml after 2 months at -80 degC. Type of data set: ADME, cell-free. As to conditions: read-out: Stability.
Data set [5] is described as follows: Stability of the compound in Rattus norvegicus (rat) plasma at 62.5 ng/ml after 2 months at -80 degC. To be noted: read-out: Stability. Type of data set: ADME, cell-free.
Data set [6] is described as follows: Stability of the compound in Rattus norvegicus (rat) plasma at 1000 ng/ml after 2 months at -80 degC. Type of data set: ADME, cell-free. To be noted: read-out: Stability.
A short description of data set [7]: Tmax in Rattus norvegicus Sprague-Dawley (rat) at 10 mg/kg, po. As to conditions: in vivo. Set-up: dose 10 mg/kg, route oral. The data set is classed as ADME, organism-based.
A short description of data set [8]: Half life in Rattus norvegicus Sprague-Dawley (rat) at 10 mg/kg, po. The data set is classed as ADME, organism-based. Further details: dose 10 mg/kg, route oral. As to conditions: in vivo.
A short description of data set [9]: Cmax in Rattus norvegicus Sprague-Dawley (rat) at 10 mg/kg, po. Type of data set: ADME, organism-based. Set-up: dose 10 mg/kg, route oral. As to conditions: in vivo.
A short description of data set [10]: AUC (0 to alpha) in Rattus norvegicus Sprague-Dawley (rat) at 10 mg/kg, po. The data set is classed as ADME, organism-based. Set-up: dose 10 mg/kg, route oral. To be noted: plasma.
A short description of data set [11]: Mean residence time in Rattus norvegicus Sprague-Dawley (rat) at 10 mg/kg, po. The data set is classed as ADME, organism-based. Further details: dose 10 mg/kg, route oral. As to conditions: in vivo.

With `O=c1c(-c2ccccc2)coc2cc(O)ccc12` [7-HYDROXY ISOFLAVONE], the Drug recovery with Plasma is reported as 85.3%.
In the case of `Oc1ccc([C@H]2COc3cc(O)ccc3C2)cc1` [AUS-131], the Drug recovery in the data set on Plasma worked out at 76.5%. In data set [1], the remaining at 24 h, 7.8 ng/ml was found to be 93.9%. For the same molecule, the remaining at 24 h, 62.5 ng/ml in [2] is 94.6%. The remaining at 24 h, 1000 ng/ml in data set [3] was 91.8%. Also, the remaining at 1461 h, 7.8 ng/ml in data set [4] is 100%. Further, the remaining at 1461 h, 62.5 ng/ml in [5] was 103%. Besides, the remaining at 1461 h, 1000 ng/ml in data set [6] stood at 95.6%.
As usually defined, the Tmax is the time at which the peak concentration occurs. For orientation: half-life means how long it takes for the measured level to halve. As a reminder, the Cmax is the highest concentration seen after dosing. As a reminder, the AUC is the area under the concentration-time curve, a measure of exposure. The low end stands for less exposure, the high end for more exposure. By MRT is commonly meant a mean duration of stay, worked out from the concentration-time curve. In the data set on Plasma, `COc1ccc(-c2coc3cc(O)ccc3c2=O)cc1OC` [CLADRIN] gave a Drug recovery of 83.5%. Besides, the remaining at 24 h, 7.8 ng/ml in [1] came out at 93.6%. Further, in [2], the remaining at 24 h, 62.5 ng/ml was determined as 98.5%. In [3], the remaining at 24 h, 1000 ng/ml came out at 88.2%. The remaining at 1461 h, 7.8 ng/ml in data set [4] was 106%. Moreover, in [5], the remaining at 1461 h, 62.5 ng/ml was 84.5%. The remaining at 1461 h, 1000 ng/ml in [6] was determined as 81.4%. Besides, in [7], the Tmax was 0.5 h. The same molecule gave a half-life in data set [8] of 4.1 h. The concentration in data set [9] peaked (Cmax) at 44.8 ng/mL. Moreover, in [10], the AUC stood at 609 ng·h/mL. This molecule came in with an MRT in data set [11] of 10.8 h.
